Values of other authors in paper PMC3826776 (Bioorganic & medicinal chemistry letters, 2011).

What was measured:
[1] = tested on: brain p-glycoprotein efflux pump (P-gp); conditions: stated without reference
[2] = tested on: mGluR5; conditions: read-out: IC50 (literature values); literature value
[3] = target: mGluR5; conditions: read-out: Ki (literature values); literature value

Row | P-gp substrate [1] | IC50 [2] [nM] | Ki [3] [nM] | Structure (SMILES)
1 | not P-gp substrates |  |  | Cc1nc(C#Cc2cccnc2)cs1 [MTEP, 3-[(2-methyl-1,3-thiazol-4yl)-ethynyl]-pyridine]
2 | not P-gp substrates | 2 | 12 | Cc1cccc(C#Cc2ccccc2)n1 [MPEP, 2-methyl-6-(phenylethynyl)-pyridine]
